Source: patent US8158656B2, “2-indolinone derivatives as multi-target protein kinase inhibitors and histone deacetylase inhibitors” (Shenzhen Chipscreen Biosciences Ltd., priority 2008, dated 2012)

Legend:
PDGFRβ NIH-3T3 cells = test: PDGF ligand-dependent cell proliferation; assay type: cell-based; conditions: Mus musculus, NIH3T3; NIH-3T3 expressing human PDGFRβ, PDGF BB 50 ng/ml, 72 hours, MTS
Description: Measurement of in vivo inhibition on receptor ligand-dependent cell proliferation: PDGF dependent cell proliferation:
NIH-3T3 mouse fibroblasts cell line engineered to stably express human PDGFRβ was constructed and used to evaluate PDGF dependent cell proliferation. PDGFRβ NIH-3T3 cells were plated into 96-well plates at 5,000 per well and incubated with serum-free medium for 24 hours. Compounds and PDGF BB (50 ng/ml) were added and incubated for 72 hours in serum-free medium. The effects on proliferation were determined by addition of MTS reagent (Promega) according to the instruction, incubation for 2 hours at 37° C. in CO2 incubator, and record the absorbance at 490 nm using an ELISA plate reader.

c-Kit = molecular target: T1, c-Kit (Homo sapiens, UniProt P10721); test: c-KIT kinase ELISA bioassay; assay type: biochemical; conditions: ELISA kinase assay, 20 μM ATP
T1 construct: purchased Cell Signaling
T1 sequence (P10721 26-976): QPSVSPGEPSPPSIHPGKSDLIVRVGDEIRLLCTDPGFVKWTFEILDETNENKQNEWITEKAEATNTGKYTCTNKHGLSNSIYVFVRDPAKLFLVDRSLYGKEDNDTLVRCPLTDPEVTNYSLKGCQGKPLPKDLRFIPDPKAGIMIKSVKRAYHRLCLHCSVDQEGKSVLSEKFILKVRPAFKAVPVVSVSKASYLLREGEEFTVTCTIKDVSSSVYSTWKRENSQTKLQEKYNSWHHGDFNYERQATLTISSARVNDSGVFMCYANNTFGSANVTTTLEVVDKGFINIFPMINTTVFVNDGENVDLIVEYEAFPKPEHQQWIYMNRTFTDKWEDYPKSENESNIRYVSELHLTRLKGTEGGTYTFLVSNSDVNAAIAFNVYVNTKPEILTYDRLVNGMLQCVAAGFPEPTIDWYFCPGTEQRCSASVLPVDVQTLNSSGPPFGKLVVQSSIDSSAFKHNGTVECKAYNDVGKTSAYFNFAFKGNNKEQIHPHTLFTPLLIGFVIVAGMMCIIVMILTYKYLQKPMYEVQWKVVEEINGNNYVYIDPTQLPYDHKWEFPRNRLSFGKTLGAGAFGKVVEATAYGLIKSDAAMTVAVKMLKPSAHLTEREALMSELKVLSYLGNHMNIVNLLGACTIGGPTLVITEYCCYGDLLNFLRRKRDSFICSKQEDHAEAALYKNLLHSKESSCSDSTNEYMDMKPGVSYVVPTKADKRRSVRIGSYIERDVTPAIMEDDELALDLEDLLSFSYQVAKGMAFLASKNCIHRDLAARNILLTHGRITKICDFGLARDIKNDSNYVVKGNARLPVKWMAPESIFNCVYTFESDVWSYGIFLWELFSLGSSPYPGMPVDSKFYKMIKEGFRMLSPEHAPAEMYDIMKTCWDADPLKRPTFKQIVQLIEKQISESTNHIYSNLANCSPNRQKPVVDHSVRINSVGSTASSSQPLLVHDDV
Description: This assay is used to measure in vitro kinase activity of c-KIT in an ELISA assay.
• 1. Streptavidin coated, 96-well, white plate • 2. Phospho-Tyrosine Monoclonal Antibody (P-Tyr-100) (Cell Signaling) • 3. HRP-labeled anti-mouse IgG (Upstate) • 4. HTScan™ Tyrosine Kinase Buffer (4×) • 5. DTT (1000×. 1.25 M) • 6. ATP (10 mM) • 7. KDR (Tyr996) Biotinylated Peptide Substrate (Cell Signaling) • 8. c-KIT Kinase (recombinant, human) (Cell Signaling) • 9. Wash Buffer: 1× PBS, 0.05% Tween-20 (PBS/T) • 10. Bovine Serum Albumin (BSA) • 11. Stop Buffer: 50 mM EDTA pH 8 • 12. Enhanced chemiluminescence (ECL) (Amersham) Procedure for performing the assay in 96-well plate: • 1. Add 10 μl 10 mM ATP to 1.25 ml 6 μM substrate peptide. Dilute the mixture with dH20 to 2.5 ml to make 2× ATP/substrate cocktail ([ATP]=40 μM, [substrate]=3 μm). • 2. Immediately transfer enzyme from −80° C. to ice. Allow enzyme to thaw on ice. • 3. Microcentrifuge briefly at 4° C. to bring liquid to the bottom of the vial. Return immediately to ice. • 4. Add 10 μl of DTT (1.25 M) to 2.5 ml of 4× HTScan™ Tyrosine Kinase Buffer (240 mM HEPES pH 7.5, 20 mM MgCl2, 20 mM MnCl2, 12 μM Na3VO4) to make DTT/Kinase buffer. • 5. Transfer 1.25 ml of DTT/Kinase buffer to enzyme tube to make 4× reaction cocktail ([enzyme]=4 ng/μL in 4× reaction cocktail). • 6. Incubate 12.5 μl of the 4× reaction cocktail with 12.5 μl/well of prediluted compound of interest (usually around 10 μM) for 5 minutes at room temperature. • 7. Add 25 μl of 2× ATP/substrate cocktail to 25 μl/well preincubated reaction cocktail/compound. Final Assay Conditions for a 50 μl Reaction: • 60 mM HEPES pH 7.5 • 5 mM MgCl2 • 5 mM MnCl2 • 3 μM Na3VO4 • 1.25 mM DTT • 20 μM ATP • 1.5 μM peptide • 100 ng c-KIT Kinase • 8. Incubate reaction plate at room temperature for 30 minutes. • 9. Add 50 μl/well Stop Buffer (50 mM EDTA, pH 8) to stop the reaction. • 10. Transfer 25 μl of each reaction and 75 μl dH2O/well to a 96-well streptavidincoated plate and incubate at room temperature for 60 minutes. • 11. Wash three times with 200 μl/well PBS/T • 12. Dilute primary antibody, Phospho-Tyrosine Monoclonal Antibody (P-Tyr-100), 1:1000 in PBS/T with 1% BSA. Add 100 μl/well of primary antibody. • 13. Incubate at room temperature for 60 minutes. • 14. Wash three times with 200 μl/well PBS/T • 15. Dilute HRP labeled anti-mouse IgG 1:500 in PBS/T with 1% BSA. Add 100 μl/well diluted antibody. • 16. Incubate at room temperature for 30 minutes. • 17. Wash five times with 200 μl/well PBS/T. • 18. Add 100 μl/well ECL Solution. • 19. Detect luminescence with appropriate Plate Reader. Flt3 Bioassay

VEGFR2 = VEGFR2 (Homo sapiens, UniProt P35968); test: VEGF receptor kinase ELISA bioassay; assay type: biochemical; conditions: ELISA kinase assay, 200 μM ATP
Sequence of VEGFR2 (P35968 807-1356): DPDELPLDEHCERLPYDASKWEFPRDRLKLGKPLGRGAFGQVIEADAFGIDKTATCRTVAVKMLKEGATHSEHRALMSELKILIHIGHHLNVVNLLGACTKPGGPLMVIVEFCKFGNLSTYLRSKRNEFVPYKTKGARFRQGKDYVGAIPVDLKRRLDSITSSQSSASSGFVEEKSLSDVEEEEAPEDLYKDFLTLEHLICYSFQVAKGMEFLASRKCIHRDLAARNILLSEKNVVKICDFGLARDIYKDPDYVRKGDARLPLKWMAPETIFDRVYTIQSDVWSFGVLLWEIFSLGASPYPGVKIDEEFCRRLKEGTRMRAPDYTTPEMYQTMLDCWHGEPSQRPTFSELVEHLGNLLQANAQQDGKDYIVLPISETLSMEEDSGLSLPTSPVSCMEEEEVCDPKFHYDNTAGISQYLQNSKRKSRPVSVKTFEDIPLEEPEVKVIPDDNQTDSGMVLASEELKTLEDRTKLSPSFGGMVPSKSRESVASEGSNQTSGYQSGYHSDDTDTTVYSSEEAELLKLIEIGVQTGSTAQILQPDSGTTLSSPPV

Class I HDAC = test: P21 reporter assay in HeLa cells; assay type: cell-based, human; conditions: for Class I HDAC (P21 reporter assay) % Max Resp of CS055 at 3 μM: relative to CS055 at 3 μM; for EC50: 24 hours
Description: HDAC subtype selectivity inhibition assay of tested compounds was carried out by several reporter gene assays experiments. Briefly, HeLa cells were seeded in 96-well plates the day before transfection to give a confluence of 50-80%. Cells were transfected with one of reporter gene plasmid containing a promoter sequence or response element upstream of a luciferase gene construct using FuGene6 transfection reagent according to the manufacturer's instruction (Roche). The promoters or response elements including p21-promoter, gdf11-promoter, MEF-binding element (MEF2), Nur77-promoter were fused upstream to the luciferase gene reporter construct. For normalizing the transfection efficiency, a GFP expression plasmid was cotransfected. Cells were allowed to express protein for 24 hours followed by addition of individual compounds or the vehicle (DMSO). 24 hours later the cells were harvested, and the luciferase assay and GFP assay were performed using corresponding assay kits according to the manufacturer's instructions (Promega).

HL60 = test: Tumor cell proliferation (MTS), HL60; assay type: cell-based; conditions: Homo sapiens, HL-60, HL60, 72 hours
Description: (§1) Measurement of in vivo cell proliferation:
(§2) Tumor cells were trypsinized and plated into 96-well plates at 3,000 per well and incubated in complete medium with 10% FBS for 24 hours. Compounds were added over a final concentration range of 100 μmol/L to 100 nmol/L in 0.1% DMSO and incubated for 72 hours in complete medium. The effects on proliferation were determined by addition of MTS reagent (Promega) according to the instruction, incubation for 2 hours at 37° C. in CO2 incubator, and record the absorbance at 490 nm using an ELISA plate reader.

Hut-78 = test: Tumor cell proliferation (MTS), Hut-78; assay type: cell-based; conditions: Homo sapiens, HuT78, Hut-78, 72 hours
Description: as §1, §2

Raji = test: Tumor cell proliferation (MTS), Raji; assay type: cell-based; conditions: Homo sapiens, 72 hours
Description: as §1, §2

Bel-7402 = test: Tumor cell proliferation (MTS), Bel-7402; assay type: cell-based; conditions: Homo sapiens, Bel-7402, 72 hours
Description: as §1, §2

MCF7 = test: Tumor cell proliferation (MTS), MCF7; assay type: cell-based; conditions: Homo sapiens, MCF7, 72 hours
Description: as §1, §2

MDA-MB-231 = test: Tumor cell proliferation (MTS), MDA-MB-231; assay type: cell-based; conditions: Homo sapiens, MDA-MB-231, 72 hours
Description: as §1, §2

Row | Compound | GI50 (PDGFRβ NIH-3T3 cells) [nM] | IC50 (c-Kit) [nM] | IC50 (VEGFR2) [nM] | Class I HDAC (P21 reporter assay) % Max Resp of CS055 at 3 μM (Class I HDAC) [%] | GI50 (HL60) [µM] | GI50 (Hut-78) [µM] | GI50 (Raji) [µM] | GI50 (Bel-7402) [µM] | GI50 (MCF7) [µM] | GI50 (MDA-MB-231) [µM] | EC50 (Class I HDAC) [µM]
1 | Cc1[nH]c(/C=N/N=C2\C(=O)Nc3ccc(F)cc32)c(C)c1C(=O)NCCCCNc1ccc(C(=O)Nc2ccc(F)cc2N)cn1 [Example 20, N-(2-amino-4-fluorophenyl)-6-(4-(2-(((5-fluoro-2-oxoindolin-3-ylidene)-hydrazono)methyl)-3,5-dimethyl-1H-pyrrole-4-carboxamido)butylamino)nicotinamide] | > 1000 | > 1000 | > 1000 | 2.8 | > 60 | > 60 | > 60 | > 60 | > 60 | > 60 | –
2 | Cc1[nH]c(/C=N/N=C2\C(=O)Nc3ccc(F)cc32)c(C)c1C(=O)NCCNc1ccc(C(=O)Nc2ccc(F)cc2N)cn1 [Example 14, N-(2-amino-4-fluorophenyl)-6-(2-(2-(((5-fluoro-2-oxoindolin-3-ylidene)-hydrazono)methyl)-3,5-dimethyl-1H-pyrrole-4-carboxamido)ethylamino)nicotinamide] | > 1000 | > 1000 | 324 | 2.1 | > 60 | > 60 | > 60 | > 60 | > 60 | > 60 | –
3 | Cc1[nH]c(/C=N/N=C2\C(=O)Nc3ccc(F)cc32)c(C)c1C(=O)NCCCNc1ccc(C(=O)Nc2ccccc2N)cn1 [Example 7, N-(2-aminophenyl)-6-(3-(2-(((5-fluoro-2-oxoindolin-3-ylidene)hydrazono)-methyl)-3,5-dimethyl-1H-pyrrole-4-carboxamido)propylamino)nicotinamide] | > 1000 | > 1000 | 634 | 6.2 | 7.91 | > 60 | > 60 | > 60 | > 60 | > 60 | –
4 | Cc1[nH]c(/C=N/N=C2\C(=O)Nc3ccc(F)cc32)c(C)c1C(=O)NCCCNc1ccc(C(=O)Nc2ccc(F)cc2N)cn1 [Example 17, N-(2-amino-4-fluorophenyl)-6-(3-(2-(((5-fluoro-2-oxoindolin-3-ylidene)-hydrazono)methyl)-3,5-dimethyl-1H-pyrrole-4-carboxamido)propylamino)nicotinamide] | > 1000 | > 1000 | > 1000 | 3.4 | > 60 | > 60 | > 60 | > 60 | > 60 | > 60 | –
5 | Cc1[nH]c(/C=C2\C(=O)Nc3ccc(F)cc32)c(C)c1C(=O)NCCNc1ccc(C(=O)Nc2ccccc2N)cn1 [Example 3, (Z)-N-(2-aminophenyl)-6-(2-(2-((5-fluoro-2-oxoindolin-3-ylidene)methyl)-3,5-dimethyl-1H-pyrrole-4-carboxamido)ethylamino)nicotinamide] | > 1000 | 157 | 11 | 131.7 | 4.15 | 1.77 | 3.45 | > 60 | > 60 | > 60 | 2.3
6 | Cc1[nH]c(/C=C2\C(=O)Nc3ccc(F)cc32)c(C)c1C(=O)NCCCCNc1ccc(C(=O)Nc2ccccc2N)cn1 [Example 9, (Z)-N-(2-aminophenyl)-6-(4-(2-((5-fluoro-2-oxoindolin-3-ylidene)methyl)-3,5-dimethyl-1H-pyrrole-4-carboxamido)butylamino)nicotinamide] | 105 | 23 | 35 | 89.1 | 1.27 | 1.67 | > 60 | > 60 | > 60 | > 60 | 13.4
7 | Cc1[nH]c(/C=C2\C(=O)Nc3ccc(F)cc32)c(C)c1C(=O)NCCCCNc1ccc(C(=O)Nc2ccc(F)cc2N)cn1 [Example 19, (Z)-N-(2-amino-4-fluorophenyl)-6-(4-(2-((5-fluoro-2-oxoindolin-3-ylidene)-methyl)-3,5-dimethyl-1H-pyrrole-4-carboxamido)butylamino)nicotinamide] | > 1000 | 65 | 157 | 2.3 | > 60 | > 60 | > 60 | > 60 | > 60 | > 60 | –
8 | Cc1[nH]c(/C=C2\C(=O)Nc3ccc(F)cc32)c(C)c1C(=O)NCCCNc1ccc(C(=O)Nc2ccc(F)cc2N)cn1 [Example 16, (Z)-N-(2-amino-4-fluorophenyl)-6-(3-(2-((5-fluoro-2-oxoindolin-3-ylidene)-methyl)-3,5-dimethyl-1H-pyrrole-4-carboxamido)propylamino)nicotinamide] | > 1000 | 242 | 72 | 2.5 | > 60 | > 60 | > 60 | > 60 | > 60 | > 60 | –
